Test results taken from patent US7700624B2, “3-aminocyclopentanecrboxamides as modulators of chemokine receptors” (Incyte Corporation, priority 2005, dated 2010).

molecular target: T1, CCR2 (Homo sapiens, UniProt P41597); experiment: CCR2 binding assay: 125I-labeled MCP-1 binding to human PBMCs; conditions: inhibition of specific binding of 0.1 to 0.2 nM 125I-labeled MCP-1 to human PBMCs, 30 min at room temperature
T1 construct: Peripheral Blood Mononuclear Cells (PBMCs) prepared from normal human whole blood via density gradient centrifugation; endogenous in cells; host or cells: human PBMCs from normal whole blood
T1 sequence (P41597 1-360 isoform P41597-2): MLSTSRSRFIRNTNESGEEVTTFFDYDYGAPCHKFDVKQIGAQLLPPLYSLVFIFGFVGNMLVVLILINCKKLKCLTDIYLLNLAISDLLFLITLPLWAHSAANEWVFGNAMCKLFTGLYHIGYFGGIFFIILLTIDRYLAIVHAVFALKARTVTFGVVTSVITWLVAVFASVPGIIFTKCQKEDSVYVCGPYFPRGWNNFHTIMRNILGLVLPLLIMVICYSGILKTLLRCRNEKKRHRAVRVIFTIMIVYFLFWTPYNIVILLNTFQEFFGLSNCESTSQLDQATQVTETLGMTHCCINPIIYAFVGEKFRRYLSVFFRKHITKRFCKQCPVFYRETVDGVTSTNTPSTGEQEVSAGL
Text: The CCR2 antagonist activity of compounds of the invention can be reported as the inhibitor concentration required for 50% inhibition (IC50 values) of specific binding in receptor binding assays using ^125I-labeled MCP-1, as ligand, and Peripheral Blood Mononuclear Cells (PBMCs) prepared from normal human whole blood via density gradient centrifugation. Specific binding is preferably defined as the total binding (e.g., total cpm on filters) minus the non-specific binding. Non-specific binding is defined as the amount of cpm still detected in the presence of excess unlabeled competitor (e.g., MCP-1).
Human PBMCs are used to test compounds of the invention in a binding assay. For example, 200,000 to 500,000 cells are incubated with 0.1 to 0.2 nM ^125I-labeled MCP-1, with or without unlabeled competitor (10 nM MCP-1) or various concentrations of compounds to be tested. ^125I-labeled MCP-1, are prepared by suitable methods or purchased from commercial vendors (Perkin Elmer, Boston Mass.). The binding reactions are performed in 50 to 250 μL of a binding buffer consisting of […] pH 7.2, and 0.1% BSA (bovine serum albumin), for 30 min at room temperature. The binding reactions are terminated by harvesting the membranes by rapid filtration through glass fiber filters (Perkin Elmer) which is presoaked in 0.3% polyethyleneimine or Phosphate Buffered Saline (PBS). The filters were rinsed with approximately 600 μL of binding buffer containing 0.5 M NaCl or PBS, then dried, and the amount of bound radioactivity is determined by counting on a Gamma Counter (Perkin Elmer).

| IC50 [nM] | SMILES |
| --- | --- |
| 420 | CC(C)[C@]1(C(=O)N2CCN(c3cc(C(F)(F)F)ccn3)CC2)CC[C@@H](NC2CCCN(c3ncccn3)C2)C1 (mixture of isomers) [Example 11, N-[(1R,3S)-3-isopropyl-3-({4-[4-(trifluoromethyl)pyridin-2-yl]piperazin-1-yl}carbonyl)cyclopentyl]-1-pyrimidin-2-ylpiperidin-3-amine] |
| 660 | CC#CCN1CCC(N[C@@H]2CC[C@@](C(=O)N3CCN(c4cc(C(F)(F)F)ccn4)CC3)(C(C)C)C2)CCC1=O (mixture of isomers) [Example 12, 1-but-2-yn-1-yl-5-{[(1R,3S)-3-isopropyl-3-({4-[4-(trifluoromethyl)pyridin-2-yl]piperazin-1-yl}carbonyl)cyclopentyl]amino}azepan-2-one] |
| 51.7 | CC(C)[C@]1(C(=O)N2CCN(c3cc(C(F)(F)F)ccn3)CC2)CC[C@@H](NC2CCc3cc(F)cc(F)c3C2)C1 (mixture of isomers) [Example 18, 6,8-difluoro-N-[(1R,3S)-3-isopropyl-3-({4-[4-(trifluoromethyl)pyridin-2-yl]piperazin-1-yl}carbonyl)cyclopentyl]-1234-tetrahydronaphthalen-2-amine] |
| 138 | CC(C)[C@]1(C(=O)N2CCN(c3cc(C(F)(F)F)ccn3)CC2)CC[C@@H](NC2CCc3ccccc3C2)C1 (mixture of isomers) [Example 19, N-[(1R,3S)-3-isopropyl-3-({4-[4-(trifluoromethyl)pyridin-2-yl]piperazin-1-yl}carbonyl)cyclopentyl]-1234-tetrahydronaphthalen-2-amine] |
| 504 | CC(CCn1cccn1)N[C@@H]1CC[C@@](C(=O)N2CCN(c3cc(C(F)(F)F)ccn3)CC2)(C(C)C)C1 (mixture of isomers) [Example 22, (1R,3S)-3-isopropyl-N-[1-methyl-3-(1H-pyrazol-1-yl)propyl]-3-({4-[4-(trifluoromethyl)pyridin-2-yl]piperazin-1-yl}carbonyl)cyclopentanamine] |
| 157 | CC(C)[C@]1(C(=O)N2CCN(c3cc(C(F)(F)F)ccn3)CC2)CC[C@@H](NC2CCOC2)C1 (mixture of isomers) [Example 23, N-[(1R-3S)-3-isopropyl-3-({4-[4-(trifluoromethyl)pyridin-2-yl]piperazin-1-yl}carbonyl)cyclopentyl]tetrahydrofuran-3-amine] |
| 19.8 | CC(C)[C@]1(C(=O)N2CCN(c3cc(C(F)(F)F)ccn3)CC2)CC[C@@H](NC2CCC(O)(c3ccc(-c4ncccn4)cn3)CC2)C1 (some centres unmarked) [Example 1, 4-{[(1R3S)-3-isopropyl-3-({4-[4-(trifluoromethyl)pyridin-2-yl]piperazin-1-yl}carbonyl)cyclopentyl]amino}-1-(5-pyrimidin-2-ylpyridin-2-yl)cyclohexanol] |
| 616 | CC(C)[C@]1(C(=O)N2CCN(c3cc(C(F)(F)F)ccn3)CC2)CC[C@@H](NCc2ccc(Cl)s2)C1 [Example 5, (1R,3S)-N-[(5-chloro-2-thienyl)methyl]-3-isopropyl-3-({4-[4-(trifluoromethyl)pyridin-2-yl]piperazin-1-yl}carbonyl)cyclopentanamine] |
| 617 | CCn1cc(CN[C@@H]2CC[C@@](C(=O)N3CCN(c4cc(C(F)(F)F)ccn4)CC3)(C(C)C)C2)cn1 [Example 7, (1R,3S)-N-[(1-ethyl-1H-pyrazol-4-yl)methyl]-3-isopropyl-3-({4-[4-(trifluoromethyl)pyridin-2-yl]piperazin-1-yl}carbonyl)cyclopentanamine] |
| 338 | CC(C)[C@]1(C(=O)N2CCN(c3cc(C(F)(F)F)ccn3)CC2)CC[C@@H](NCc2cnc3c(c2)NC(=O)CO3)C1 [Example 9, 7-({[(1R,3S)-3-isopropyl-3-({4-[4-(trifluoromethyl)pyridin-2-yl]piperazin-1-yl}carbonyl)cyclopentyl]amino}methyl)-1H-pyrido[23-b][14]oxazin-2(3H)-one] |
| 519 | COc1ccc(CN[C@@H]2CC[C@@](C(=O)N3CCN(c4cc(C(F)(F)F)ccn4)CC3)(C(C)C)C2)c(OC)c1 [Example 10, (1R,3S)-N-(24-dimethoxybenzyl)-3-isopropyl-3-({4-[4-(trifluoromethyl)pyridin-2-yl]piperazin-1-yl}carbonyl)cyclopentanamine] |
| 273 | CC(C)NC(=O)CCC1CCCC1N[C@@H]1CC[C@@](C(=O)N2CCN(c3cc(C(F)(F)F)ccn3)CC2)(C(C)C)C1 (stereo partly drawn) [Example 13, N-isopropyl-3-(2-{[(1R,3S)-3-isopropyl-3-({4-[4-(trifluoromethyl)pyridin-2-yl]piperazin-1-yl}carbonyl)cyclopentyl]amino}cyclopentyl)propanamide] |
| 74.8 | CC(C)[C@]1(C(=O)N2CCN(c3cc(C(F)(F)F)ccn3)CC2)CC[C@@H](NC2Cc3ccccc3C2)C1 [Example 14, N-[(1R,3S)-3-isopropyl-3-({4-[4-(trifluoromethyl)pyridin-2-yl]piperazin-1-yl}carbonyl)cyclopentyl]indan-2-amine] |
| 541 | CC(C)[C@]1(C(=O)N2CCN(c3cc(C(F)(F)F)ccn3)CC2)CC[C@@H](NC2CCS(=O)(=O)CC2)C1 [Example 15, N-[(1R-3S)-3-isopropyl-3-({4-[4-(trifluoromethyl)pyridin-2-yl]piperazin-1-yl}carbonyl)cyclopentyl]tetrahydro-2H-thiopyran-4-amine 11-dioxide] |
| 227 | CC(C)[C@]1(C(=O)N2CCN(c3cc(C(F)(F)F)ccn3)CC2)CC[C@@H](NC2CCCC2)C1 [Example 16, (1R,3S)-N-cyclopentyl-3-isopropyl-3-({4-[4-(trifluoromethyl)pyridin-2-yl]piperazin-1-yl}carbonyl)cyclopentanamine] |
| 190 | CCCNC(=O)CCC1CCCC1N[C@@H]1CC[C@@](C(=O)N2CCN(c3cc(C(F)(F)F)ccn3)CC2)(C(C)C)C1 (stereo partly drawn) [Example 17, 3-(2-{[(1R,3S)-3-isopropyl-3-({4-[4-(trifluoromethyl)pyridin-2-yl]piperazin-1-yl}carbonyl)cyclopentyl]amino}cyclopentyl)-N-propylpropanamide] |
| 80.6 | CC1OCCC1N[C@@H]1CC[C@@](C(=O)N2CCN(c3cc(C(F)(F)F)ccn3)CC2)(C(C)C)C1 (stereo partly drawn) [Example 20, 2,5-anhydro-1,3,4-trideoxy-3-{[(1R,3S)-3-isopropyl-3-({4-[4-(trifluoromethyl)pyridin-2-yl]piperazin-1-yl}carbonyl)cyclopentyl]amino}pentitol] |
| 10.1 | CC1COCC(C)C1N[C@@H]1CC[C@@](C(=O)N2CCN(c3cc(C(F)(F)F)ccn3)CC2)(C(C)C)C1 (stereo partly drawn) [Example 21, N-[(1R,3S)-3-isopropyl-3-({4-[4-(trifluoromethyl)pyridin-2-yl]piperazin-1-yl}carbonyl)cyclopentyl]-35-dimethyltetrahydro-2H-pyran-4-amine] |
| 181 | CC(C)[C@]1(C(=O)N2CCN(c3cc(C(F)(F)F)ccn3)CC2)CC[C@@H](N(C)C2CCOC2)C1 (stereo partly drawn) [Example 24, N-[(1R,3S)-3-isopropyl-3-({4-[4-(trifluoromethyl)pyridin-2-yl]piperazin-1-yl}carbonyl)cyclopentyl]—N-methyltetrahydrofuran-3-amine] |
| 500 | COc1ccc(CN[C@@H]2CC[C@@](C(=O)N3CCN(c4cc(C(F)(F)F)ccn4)CC3)(C(C)C)C2)cc1OC [Example 25, (1R,3S)-N-(34-dimethoxybenzyl)-3-isopropyl-3-({4-[4-(trifluoromethyl)pyridin-2-yl]piperazin-1-yl}carbonyl)cyclopentanamine] |
| 273 | CC(C)[C@]1(C(=O)N2CCN(c3cc(C(F)(F)F)ccn3)CC2)CC[C@@H](NCc2ccc3[nH]ccc3c2)C1 [Example 26, (1R,3S)-N-(1H-indol-5-ylmethyl)-3-isopropyl-3-({4-[4-(trifluoromethyl)pyridin-2-yl]piperazin-1-yl}carbonyl)cyclopentanamine] |
| 470 | CC(C)[C@]1(C(=O)N2CCN(c3cc(C(F)(F)F)ccn3)CC2)CC[C@@H](NCc2ccc(O)cc2)C1 [Example 27, 4-({[(1R,3S)-3-isopropyl-3-({4-[4-(trifluoromethyl)pyridin-2-yl]piperazin-1-yl}carbonyl)cyclopentyl]amino}methyl)phenol] |
| 389 | CC(C)[C@]1(C(=O)N2CCN(c3cc(C(F)(F)F)ccn3)CC2)CC[C@@H](NCc2ccc(F)cc2)C1 [Example 28, (1R,3S)-N-(4-fluorobenzyl)-3-isopropyl-3-({4-[4-(trifluoromethyl)pyridin-2-yl]piperazin-1-yl}carbonyl)cyclopentanamine] |
